Where a SMILES comes first, the peptide text is derived from it. Where no end group is shown, it is not given here. The star is where a group is joined. Myristoyl = CCCCCCCCCCCCCC(=O)*
Tests used:
[1] = test system: human neutrophils; test: PMA-stimulated MPO release from isolated human neutrophils (TMB assay); type: cell-based; conditions: for MPO activity relative to control as 100%: 30 min after 100 nM PMA, PMA control reference about 275%; for % Inhibition MPO: 100 μM test peptide, two hour incubation with 100 nM PMA, human neutrophils; for increase of human neutrophil MPO release versus control level: 100 nM PMA
Source text: Human neutrophil isolation—These studies were approved by the human studies Institutional Review Board (IRB). Human neutrophils were isolated as previously described (see Takashi S, OkuboY, Horie S. Contribution of CD54 to human eosinophil and neutrophil superoxide production. J Appl Physiol 2001; 91:613-622) with slight modifications. Briefly, heparinized venous blood was obtained from normal healthy volunteers, diluted with RPMI-1640 (Cellgro; Mediatech, Inc., Herndon, VA) at a ratio of 1:1, layered onto a Histopaque (density, 1.077 g/ml; Sigma-Aldrich Co., St. Louis, MO) and centrifuged at 400 g for 20 min at 4° C. The supernatant and mononuclear cells at the interface were carefully removed, and erythrocytes in the sediment were lysed in chilled distilled water. Isolated granulocytes were washed twice with Hanks' balanced salts solution (HBSS) and resuspended in HBSS on ice.
Measurement of released neutrophil MPO activity—For measurement of MPO release, purified human neutrophils suspended in HBSS were aliquoted at 4×10^6 cells/ml in 15 ml tubes and preincubated with either 50 or 100 μM of MANS, RNS, or one of the peptides of invention for 10 min at 37° C. The cells then were stimulated with 100 nM phorbol 12-myristate 13-acetate (PMA) for up to 3 hrs. A control reference (PMA control reference) was established using purified human neutrophils suspended in HBSS aliquoted at 4×10^6 cells/ml in 15 mL tubes and stimulated with 100 nM phorbol 12-myristate 13-acetate (PMA) in the absence of a test peptide for the same time periods. The reaction was terminated by placing the tubes on ice and centrifugation at 400 g for 5 min at 4° C.
MPO activity in the cell supernatant was assayed using tetramethylbenzidine (TMB) based on a previously established technique (Abdel-Latif D, Steward M, Macdonald D L, Francis G A., Dinauer M C, Lacy P. Rac2 is critical for neutrophil primary granule exocytosis. Blood 2004; 104:832-839). Briefly, 100 μL of TMB substrate solution was added to 50 μL of cell supernatants or standard human MPO (EMD Biosciences, Inc., San Diego, CA) in a 96-well microplate followed by incubation at room temperature for 15 min. The reaction was terminated by addition of 50 μL of 1M […] and absorbance was read at 450 nm in a spectrophotometric microplate reader (VERSA max, Molecular Devices, Sunnyvale, CA).
The data presented in the table below represents 100 μM concentration of test peptides and a two hour incubation with 100 nM PMA.

[2] = test system: NK-92 cells; test: PMA-stimulated granzyme release from NK-92 cells (BLT hydrolysis); type: cell-based, human; conditions: 50 μM test peptide, two hour incubation with 100 nM PMA
Experimental: Three types of human leukocyte cell lines, specifically the promyelocytic cell line HL-60 clone 15, the monocytic cell line U937, and the lymphocyte natural killer cell line NK-92 were purchased from American Type Culture Collection (ATCC; Rockville, MD). HL-60 clone 15 cells (ATCC CRL-1964) were maintained in medium consisting of RPMI 1640 with L-glutamine supplemented with 10% heat-inactivated fetal bovine serum (Gibco; Invitrogen Co., Carlsbad, CA), 50 IU/ml penicillin, 50 μg/mL streptomycin, and 25 mM HEPES buffer, pH 7.8, at 37° C. in an atmosphere containing 5% CO2. […] Viability of cells harvested for experiments was assessed by trypan blue exclusion and populations of cells with viability >95% were used. […]
For measurements of released MPO from neutrophils and released lysozyme from U937 cells, we were able to quantify secretion by using as standards human MPO and […], respectively. For released EPO from HL-60 clone 15 cells and for released granzyme from NK-92 cells, no standards were available to use for quantification. […] To measure intracellular EPO in HL-60 clone 15 cells and intracellular granzyme in NK-92 cells, appropriate aliquots of 0.1% triton X-100-lysed cells were taken for quantification of intracellular granule proteins as described below. All treatments were expressed as percentage of control to minimize variability between cultures. […]

[3] = test system: isolated human neutrophils; test: MPO secretion from isolated human neutrophils stimulated with PMA + 8-Br-cGMP (FIG. 7, 8, 9); type: cell-based; conditions: for MPO secretion: FIG. 7, 100 nM PMA and 10 μM 8-Br-cGMP

With CCCCCCCCCCCCCC(=O)NCC(=O)N[C@@H](C)C(=O)N[C@@H](CCC(N)=O)C(=O)N[C@@H](Cc1ccccc1)C(=O)N[C@@H](CO)C(=O)N[C@@H](CCCCN)C(=O)N[C@H](C(=O)N[C@@H](C)C(=O)N[C@@H](C)C(=O)N[C@@H](CCCCN)C(=O)NCC(=O)N[C@@H](CCC(=O)O)C(=O)N[C@@H](C)C(=O)N[C@@H](C)C(=O)N[C@@H](C)C(=O)N[C@@H](CCC(=O)O)C(=O)N[C@@H](CCCNC(=N)N)C(=O)N1CCC[C@H]1C(=O)NCC(=O)N[C@@H](CCC(=O)O)C(=O)N[C@@H](C)C(=O)N[C@@H](C)C(=O)N[C@H](C(=O)N[C@@H](C)C(=O)O)C(C)C)[C@@H](C)O [MANS] (Myristoyl-GAQFSKTAAKGEAAAERPGEAAVA-OH; C-terminus assumed) the “MPO activity relative to control as 100%” value ([1]; 50 μM) was “about 275%”, the “reduction in MPO release versus the PMA control reference” value ([1]; 50 μM, 1 hr) was “about 15%” and the “MPO activity % of control” value ([1]; 50 μM, 1 hr, PMA control reference about 340%) was “about 290%”. For the same compound, the “reduction of MPO release versus the PMA control reference” value ([1]; 50 μM, 2 hours) was “approximately 30%”, the “MPO activity % of control” value ([1]; 50 μM, 2 hours, PMA control reference about 540%) was “about 375%” and the “reduction of MPO release versus the PMA control reference” value ([1]; 50 μM, 3 hours) was “approximately 33%”. The “MPO activity % of control” value ([1]; 50 μM, 3 hours, PMA control reference about 560%) was “about 375%”, the “% Inhibition MPO” value [1] was 31.2% and the “MPO activity relative to control as 100%” value ([1]; 100 μM) was “about 305%”. For the same compound, the “reduction in MPO release versus the PMA control reference” value ([1]; 100 μM, 1 hr) was “about 25%”, the “MPO activity % of control” value ([1]; 100 μM, 1 hr, PMA control reference about 340%) was “about 260%” and the “reduction of MPO release versus the PMA control reference” value ([1]; 100 μM, 2 hours) was “approximately 45%”. The “MPO activity % of control” value ([1]; 100 μM, 2 hours, PMA control reference about 540%) was “about 295%”, the “reduction of MPO release versus the PMA control reference” value ([1]; 100 μM, 3 hours) was “approximately 40%” and the “MPO activity % of control” value ([1]; 100 μM, 3 hours, PMA control reference about 560%) was “about 320%”. For the same compound, the “effect on PMA-induced MPO release” value ([1]; 50 and 100 μM, 30 min) was “no detected effect”, the “% Inhibition Granzyme” value [2] was 76.0% and the MPO secretion ([3]; 10 μM peptide) was “slight decrease”. For the same compound, the MPO secretion ([3]; 100 μM peptide) was “decreased secretion of MPO to control levels”.
In the case of CCCCCCCCCCCCCC(=O)O[C@@H]1[C@@H](C)[C@@]2(O)[C@@H](C=C(CO)C[C@]3(O)C(=O)C(C)=C[C@@H]23)[C@@H]2C(C)(C)[C@]12OC(C)=O [PMA, phorbol 12-myristate 13-acetate], the “increase of human neutrophil MPO release versus control level” value ([1]; 30 min) is reported as “approximately threefold”, the “increase of human neutrophil MPO release versus control level” value ([1]; after 3 hrs) is reported as 5-6 fold and the “MPO secretion from LPS-stimulated human neutrophils” value ([3]; FIG. 8, PMA alone, enhanced concentration-dependently by co-stimulation with 8-Br-cGMP) is reported as “small increase”.
With CCCCCCCCCCCCCC(=O)NCC(=O)N[C@H](C(=O)N[C@@H](C)C(=O)N1CCC[C@H]1C(=O)N[C@@H](C)C(=O)N[C@@H](C)C(=O)N[C@@H](CCC(=O)O)C(=O)NCC(=O)N[C@@H](C)C(=O)NCC(=O)N[C@@H](C)C(=O)N[C@@H](CCC(=O)O)C(=O)N[C@H](C(=O)N[C@@H](CCCCN)C(=O)N[C@@H](CCCNC(=N)N)C(=O)N[C@@H](C)C(=O)N[C@@H](CO)C(=O)N[C@@H](C)C(=O)N[C@@H](CCC(=O)O)C(=O)N[C@@H](C)C(=O)N[C@@H](CCCCN)C(=O)N[C@@H](CCC(N)=O)C(=O)N[C@@H](C)C(=O)N[C@@H](Cc1ccccc1)C(=O)O)C(C)C)[C@@H](C)O [RNS, reference compound] (Myristoyl-GTAPAAEGAGAEVKRASAEAKQAF-OH; C-terminus assumed) the “% Inhibition MPO” value [1] was 0%, the “effect on PMA-induced MPO release” value ([1]; any of the time points or concentrations tested) was “did not affect” and the “% Inhibition Granzyme” value [2] was 29.5%. For the same compound, the MPO secretion ([3]; 10 or 100 μM peptide) was “no effect”.
In the case of Ac-GAQFSKTAAK [Ac-GAQFSKTAAK], the “% Inhibition MPO” value [1] is reported as 25.3%.
